In brackets after ≈: the same amount, converted by molar mass.
Tests used:
Test in all cases: ≥ marks a high value that may be exact or a test limit, other limits are often not marked, values filed in µg/mL are converted to µM
[1] = tested on: Candida albicans ATCC 2002
[2] = tested on: Escherichia coli ATCC 25922
[3] = tested on: Staphylococcus aureus ATCC 25923
[4] = tested on: Pseudomonas aeruginosa CMCCB 10104
[5] = tested on: Escherichia coli ATCC 25726
[6] = tested on: Micrococcus luteus ATCC 9341
Bacillus subtilis = tested on: Bacillus subtilis
[7] = tested on: Staphylococcus aureus ATCC 43300
Escherichia coli ML-35p = tested on: Escherichia coli ML-35p
[8] = tested on: Pseudomonas aeruginosa PAO1
[9] = tested on: Staphylococcus aureus ATCC 2592
[10] = tested on: Pseudomonas aeruginosa ATCC 27853

| Structure (SMILES) | MIC [1] [µM] | MIC [2] [µM] | MIC [3] [µM] | MIC [4] [µM] | MIC [5] [µM] | also measured |
| --- | --- | --- | --- | --- | --- | --- |
| CC[C@H](C)[C@H](NC(=O)[C@H](CC(N)=O)NC(=O)[C@@H](NC(=O)[C@H](C)N)[C@@H](C)O)C(=O)N1CCC[C@H]1C(=O)N[C@@H](Cc1ccccc1)C(=O)N[C@@H](CCCCN)C(=O)N[C@H](C(=O)N[C@@H](Cc1cnc[nH]1)C(=O)N[C@@H](Cc1ccccc1)C(=O)N[C@@H](CCCN=C(N)N)C(=O)N[C@H]1CSSC[C@@H](C(=O)O)NC(=O)[C@H](Cc2ccccc2)NC(=O)[C@H](C)NC(=O)[C@H](C)NC(=O)[C@H](CCCCN)NC1=O)C(C)C [ATNIPFKVHFRCKAAFC] | 24.1 (≈ 47 µg/mL) | 12 (≈ 23.5 µg/mL) | > 24.1 | 24.1 (≈ 47 µg/mL) | – | – |
| CC[C@H](C)[C@H](NC(=O)[C@H](Cc1ccc(O)cc1)NC(=O)[C@H](CO)NC(=O)[C@H](CS)NC(=O)[C@H](Cc1ccccc1)NC(=O)[C@H](CC(C)C)NC(=O)[C@H](CC(N)=O)NC(=O)[C@H](CCC(=O)O)NC(=O)[C@H](CCSC)NC(=O)[C@H](CC(C)C)NC(=O)[C@@H](NC(=O)[C@@H](NC(=O)[C@H](CC(=O)O)NC(=O)[C@H](CCC(=O)O)NC(=O)[C@H](CCC(=O)O)NC(=O)[C@H](C)NC(=O)[C@H](CC(N)=O)NC(=O)[C@@H](N)CCC(=O)O)[C@@H](C)CC)C(C)C)C(=O)N[C@H](C(=O)NCC(=O)N[C@@H](CO)C(=O)N[C@@H](C)C(=O)N[C@@H](CC(=O)O)C(=O)N[C@@H](CO)C(=O)N[C@@H](Cc1ccccc1)C(=O)N[C@@H](Cc1c[nH]c2ccccc12)C(=O)N[C@H](C(=O)O)[C@@H](C)O)C(C)C [ENAEEDIVLMENLFCSYIVGSADSFWT] | ≥ 64.9 | > 64.9 | > 64.9 | ≥ 64.9 | – | – |
| CC[C@H](C)[C@H](NC(=O)[C@H](CCCCN)NC(=O)[C@H](CCCCN)NC(=O)CNC(=O)[C@H](C)NC(=O)CNC(=O)[C@H](Cc1ccccc1)NC(=O)[C@@H](NC(=O)[C@H](CO)NC(=O)CNC(=O)[C@H](CC(C)C)NC(=O)[C@H](CC(C)C)NC(=O)CN)[C@@H](C)CC)C(=O)N[C@@H](C)C(=O)N[C@H]1CSSC[C@@H](C(=O)O)NC(=O)[C@H](CC(C)C)NC(=O)CNC(=O)[C@H](CO)NC(=O)[C@H](CC(C)C)NC(=O)[C@H](C)NC1=O [GLLGSIFGAGKKIACALSGLC] | – | – | 31.6 (≈ 62.4 µg/mL) | – | 15.7 (≈ 31 µg/mL) | – |
| CC[C@H](C)[C@H](N)C(=O)N[C@@H](CC(C)C)C(=O)N1CCC[C@H]1C(=O)N[C@@H](Cc1c[nH]c2ccccc12)C(=O)N[C@@H](CCC(=O)O)C(=O)N[C@@H](Cc1c[nH]c2ccccc12)C(=O)N1CCC[C@H]1C(=O)N[C@@H](Cc1c[nH]c2ccccc12)C(=O)N[C@@H](Cc1c[nH]c2ccccc12)C(=O)N1CCC[C@H]1C(=O)N[C@@H](Cc1c[nH]c2ccccc12)C(=O)N[C@@H](CCC(=O)O)C(=O)N[C@@H](CCC(=O)O)C(N)=O [ILPWEWPWWPWEE] | – | – | – | – | – | MIC [6]: ≥ 100 µM |
| CC[C@H](C)[C@H](N)C(=O)N[C@@H](CC(C)C)C(=O)N1CCC[C@H]1C(=O)N[C@@H](Cc1c[nH]c2ccccc12)C(=O)N[C@@H](CCCCN)C(=O)N[C@@H](Cc1c[nH]c2ccccc12)C(=O)N1CCC[C@H]1C(=O)N[C@@H](Cc1c[nH]c2ccccc12)C(=O)N[C@@H](Cc1c[nH]c2ccccc12)C(=O)N1CCC[C@H]1C(=O)N[C@@H](Cc1c[nH]c2ccccc12)C(N)=O [ILPWKWPWWPW] | – | – | – | – | – | MIC [6]: 0.8 µM (≈ 1.28 µg/mL) |
| NC(=O)[C@H](CCCN=C(N)N)NC(=O)[C@H](CCCN=C(N)N)NC(=O)[C@H](Cc1c[nH]c2ccccc12)NC(=O)[C@@H]1CCCN1C(=O)[C@H](Cc1c[nH]c2ccccc12)NC(=O)[C@H](Cc1c[nH]c2ccccc12)NC(=O)[C@@H]1CCCN1C(=O)[C@@H](N)Cc1c[nH]c2ccccc12 [WPWWPWRR] | – | – | – | – | – | MIC [6]: 1.6 µM (≈ 2.03 µg/mL) |

More lines, main results first:

| MIC [1] [µM] | MIC [2] [µM] | MIC [3] [µM] | MIC [4] [µM] | MIC [5] [µM] | Structure (SMILES) | also measured |
| --- | --- | --- | --- | --- | --- | --- |
| ≥ 140 | > 140 | > 140 | ≥ 140 | – | CC[C@H](C)[C@H](NC(=O)CNC(=O)[C@H](CS)NC(=O)[C@H](Cc1ccccc1)NC(=O)[C@H](CCCCN)NC(=O)[C@H](CCCN=C(N)N)NC(=O)[C@@H]1CCCN1C(=O)[C@H](CCCN=C(N)N)NC(=O)[C@H](CC(=O)O)NC(=O)[C@@H]1CCCN1C(=O)[C@H](C)N)C(=O)N[C@@H](CC(C)C)C(=O)NCC(=O)O [APDRPRKFCGILG] | – |
| ≥ 105 | > 105 | > 105 | ≥ 105 | – | CSCC[C@H](NC(=O)[C@H](CCCCN)NC(=O)[C@@H](NC(=O)[C@H](CCC(=O)O)NC(=O)[C@H](CCCCN)NC(=O)[C@H](CCCCN)NC(=O)[C@H](CCCCN)NC(=O)[C@H](CCCCN)NC(=O)[C@H](CC(C)C)NC(=O)[C@H](CCSC)NC(=O)[C@@H](N)CCC(=O)O)C(C)C)C(=O)N[C@@H](CCC(=O)O)C(=O)N[C@@H](CCCN=C(N)N)C(=O)N[C@@H](CCCCN)C(=O)N[C@H](C(=O)O)[C@@H](C)O [EMLKKKKEVKMERKT] | – |
| – | – | 3.2 (≈ 7.99 µg/mL) | – | 25 (≈ 62.5 µg/mL) | CC[C@H](C)[C@@H]1NC(=O)[C@H](C)NC(=O)[C@@H](NC(=O)[C@H](Cc2ccc(O)cc2)NC(=O)[C@H](C)NC(=O)[C@H](C)NC(=O)[C@@H]2CCCN2C(=O)[C@@H](NC(=O)[C@@H](NC(=O)[C@H](CCCCN)NC(=O)[C@@H](NC(=O)[C@H](C)NC(=O)[C@H](C)NC(=O)[C@H](CCCCN)NC(=O)[C@@H](NC(=O)[C@H](CC(C)C)NC(=O)CNC(=O)CNC(=O)[C@H](CCSC)NC(=O)[C@@H](N)Cc2ccccc2)[C@@H](C)CC)[C@@H](C)O)[C@@H](C)CC)C(C)C)CSSC[C@@H](C(=O)O)NC(=O)[C@H](CCCCN)NC(=O)[C@H](CCCCN)NC(=O)[C@H]([C@@H](C)O)NC1=O [FMGGLIKAATKIVPAAYCAITKKC] | – |
| – | – | 2 (≈ 3.34 µg/mL) | – | 16 (≈ 26.7 µg/mL) | CC[C@H](C)[C@H](N)C(=O)N[C@@H](CC(C)C)C(=O)NCC(=O)N[C@@H](CCCCN)C(=O)N[C@@H](CC(C)C)C(=O)N[C@@H](CC(C)C)C(=O)N[C@@H](CO)C(=O)N[C@H](C(=O)N[C@@H](C)C(=O)N[C@@H](C)C(=O)N[C@@H](CCCCN)C(=O)N[C@@H](CC(C)C)C(=O)N[C@@H](CC(C)C)C(=O)N[C@@H](CO)C(=O)N[C@@H](CCCCN)C(=O)N[C@@H](CC(C)C)C(N)=O)[C@@H](C)O [ILGKLLSTAAKLLSKL] | – |
| – | – | 40 (≈ 116 µg/mL) | – | ≥ 80 | CC[C@H](C)[C@H](N)C(=O)N[C@H](C(=O)N[C@H](C(=O)N1CCC[C@H]1C(=O)N1CCC[C@H]1C(=O)N[C@H](C(=O)N[C@H](C(=O)N[C@@H](CCCCN)C(=O)N[C@@H](CC(=O)O)C(=O)N[C@H](C(=O)N[C@@H](CC(C)C)C(=O)N[C@@H](CCCCN)C(=O)N[C@@H](CCCCN)C(=O)N[C@@H](Cc1ccccc1)C(=O)N[C@@H](Cc1ccccc1)C(=O)N[C@@H](CCCCN)C(=O)NCC(=O)NCC(=O)N[C@H](C(=O)N[C@@H](C)C(=O)NCC(=O)N[C@H](C(=O)N[C@@H](CCSC)C(=O)NCC(=O)N[C@@H](CCCCN)C(=O)N[C@@H](CO)C(=O)N[C@@H](CCC(N)=O)C(=O)O)C(C)C)[C@@H](C)CC)[C@@H](C)O)[C@@H](C)CC)[C@@H](C)CC)[C@@H](C)CC)[C@@H](C)O [ITIPPIIKDTLKKFFKGGIAGVMGKSQ] | – |
| 2.89 (≈ 9.99 µg/mL) | – | – | – | – | CC[C@H](C)[C@H](NC(=O)[C@H](C)NC(=O)[C@@H](NC(=O)[C@@H](NC(=O)[C@H](CCCCN)NC(=O)CNC(=O)[C@H](CCCCN)NC(=O)[C@H](CC(=O)O)NC(=O)[C@H](CCCN=C(N)N)NC(=O)[C@@H](NC(=O)[C@@H](N)CO)[C@@H](C)CC)[C@@H](C)O)[C@@H](C)CC)C(=O)N[C@@H](CC(=O)O)C(=O)N[C@@H](CC(C)C)C(=O)N[C@@H](C)C(=O)N[C@@H](CCCCN)C(=O)N[C@@H](CO)C(=O)N[C@@H](C)C(=O)NCC(=O)N[C@H](C(=O)NCC(=O)N[C@H](C(=O)N[C@@H](CC(C)C)C(=O)N[C@@H](CCCCN)C(=O)N[C@H](C(=O)N[C@@H](CC(C)C)C(=O)N[C@@H](CCSC)C(=O)N[C@H]1CSSC[C@@H](C(=O)O)NC(=O)[C@H](CO)NC(=O)[C@H](CCCCN)NC(=O)[C@H](CC(=O)O)NC(=O)[C@H](CC(C)C)NC(=O)[C@H](CCCCN)NC1=O)[C@@H](C)O)C(C)C)[C@@H](C)O [SIRDKGKTIAIDLAKSAGTGVLKTLMCKLDKSC] | MIC (Bacillus subtilis): 8.66 µM (≈ 30 µg/mL); MIC [7]: 2.89 µM (≈ 9.99 µg/mL); MIC (Escherichia coli ML-35p): 2.89 µM (≈ 9.99 µg/mL); MIC [8]: 0.721 µM (≈ 2.5 µg/mL); MIC [9]: 2.89 µM (≈ 9.99 µg/mL); MIC [10]: 0.721 µM (≈ 2.5 µg/mL) |
| 2.84 (≈ 9.99 µg/mL) | – | – | – | – | CC[C@H](C)[C@H](NC(=O)[C@H](C)NC(=O)[C@H](CCSC)NC(=O)[C@@H](NC(=O)[C@H](CCCCN)NC(=O)[C@@H](NC(=O)[C@H](CCCCN)NC(=O)[C@H](CC(=O)O)NC(=O)[C@H](CCCN=C(N)N)NC(=O)[C@@H](NC(=O)[C@@H](N)CO)[C@@H](C)CC)[C@@H](C)CC)[C@@H](C)O)C(=O)N[C@@H](CC(=O)O)C(=O)N[C@@H](CC(C)C)C(=O)N[C@@H](C)C(=O)N[C@@H](CCCCN)C(=O)N[C@@H](CO)C(=O)N[C@@H](C)C(=O)NCC(=O)N[C@H](C(=O)NCC(=O)N[C@H](C(=O)N[C@@H](CC(C)C)C(=O)N[C@@H](CCCCN)C(=O)N[C@H](C(=O)N[C@@H](CC(C)C)C(=O)N[C@H](C(=O)N[C@H]1CSSC[C@@H](C(=O)O)NC(=O)[C@H](CO)NC(=O)[C@H](CCCCN)NC(=O)[C@H](CC(=O)O)NC(=O)[C@H](CC(C)C)NC(=O)[C@H](CCCCN)NC1=O)[C@@H](C)CC)[C@@H](C)O)C(C)C)[C@@H](C)O [SIRDKIKTMAIDLAKSAGTGVLKTLICKLDKSC] | MIC (Bacillus subtilis): 11.4 µM (≈ 40 µg/mL); MIC [7]: 4.26 µM (≈ 15 µg/mL); MIC (Escherichia coli ML-35p): 2.84 µM (≈ 9.99 µg/mL); MIC [8]: 1.42 µM (≈ 5 µg/mL); MIC [9]: 2.84 µM (≈ 9.99 µg/mL); MIC [10]: 1.42 µM (≈ 5 µg/mL) |

From DBAASP
